Data from ChEMBL document CHEMBL1201862, “PubChem BioAssay data set” (2004).
Activity calls are given as the source filed them.

What was measured:
Melanocortin receptor 4 [1] = target: T1, Melanocortin receptor 4 (Homo sapiens, UniProt P32245); test: inhibitors of MC4R cAMP signaling – cell-based, TR-FRET, biased antagonists, dose response (AID 602298); assay type: functional;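 note: antagonist potency against agonist-stimulated cAMP production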
[2] = cAMP pathway inhibition in counterscreen cell line – TR-FRET cAMP detection, counter-screen for MC4R biased antagonist project, dose response (AID 602305); assay type: functional, cell-based;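 note: U2OS cells stimulated with forskolin near its EC80 as the cAMP inducer; potency is for inhibition of forskolin-stimulated cAMP signaling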
[3] = target: T2, Latent membrane protein 1 (Human herpesvirus 4 (strain B95-8), UniProt P03230); test: LMP1 TES1 pathway selectivity over dsRED control – imaging, HEK293T, dual-color eGFP/dsRED, cherry-picks, selectivity assay for LMP1 NF-kB inhibitor project, dose response (AID 588398); assay type: functional, cell-based
T2 sequence (P03230 whole entry): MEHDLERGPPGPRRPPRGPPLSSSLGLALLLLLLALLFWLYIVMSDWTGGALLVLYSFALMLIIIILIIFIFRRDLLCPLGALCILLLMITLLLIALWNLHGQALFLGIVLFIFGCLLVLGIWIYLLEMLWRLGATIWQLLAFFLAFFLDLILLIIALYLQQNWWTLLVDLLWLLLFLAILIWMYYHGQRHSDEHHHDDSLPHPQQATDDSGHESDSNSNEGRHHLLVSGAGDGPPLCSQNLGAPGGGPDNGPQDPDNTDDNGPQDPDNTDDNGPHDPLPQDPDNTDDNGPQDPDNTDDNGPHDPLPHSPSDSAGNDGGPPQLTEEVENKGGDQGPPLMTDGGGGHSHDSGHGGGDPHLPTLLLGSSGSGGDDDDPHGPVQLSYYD

HEK293 = test: EBV LMP1 TES2 canonical NF-kB signalling blockers – cell-based, HEK293, luciferase, cherry-pick, dose response (AID 588343); assay type: functional; details: Homo sapiens
Melanocortin receptor 4 [4] = target: T1, Melanocortin receptor 4; assay type: functional, cell-based
Mu-type opioid receptor = Mu-type opioid receptor (Homo sapiens, UniProt P35372); test: (§1) Counterscreen for agonists of heterodimerization of the mu 1 (OPRM1) and delta 1 (OPRD1) opioid receptors: Luminescence-based cell-based high throughput dose response assay to identify agonists of OPRM1 homodimerization.; assay type: functional
[5] = target: Delta-type opioid receptor (Homo sapiens, UniProt P41143); test: as §1, with “of OPRD1” for “of OPRM1”, “homodimerization. [Related pubchem assays (depositor defined):AID504326, AID504355, AID504692, AID504904, AID504905]” for “homodimerization.”; assay type: functional
[6] = target: 5-hydroxytryptamine receptor 5A (Homo sapiens, UniProt P47898); test: Counterscreen for agonists of OPRM1-OPRD1 heterodimerization: luminescence-based cell-based high throughput dose response assay to identify agonists of 5-hydroxytryptamine (serotonin) 5A receptor (HTR5A). [Related pubchem assays (depositor defined):AID504326, AID504355, AID504692, AID504904, AID504905]; assay type: functional
Vero = test: cells; assay type: functional; details: Chlorocebus sabaeus
[7] = target: T3, Polyadenylate-binding protein 1 (Homo sapiens, UniProt P11940); test: MLLE binding blockers, Cy5 peptide tracer – biochemical, fluorescence polarization, Cy5-PAM2 peptide, secondary, miRNA deadenylation inhibitor project, dose response (AID 602260); assay type: functional; details: read-out: IC50_Mean
Interleukin-8 [8] = target: T4, Interleukin-8 (Homo sapiens, UniProt P10145); test: Dose Response confirmation of uHTS small molecule hits for cystic fibrosis induced NFkb Inhibitors in a PAF-induced IL8 counterscreen.; assay type: functional; details: read-out: IC50_Mean
T4 sequence (P10145 whole entry): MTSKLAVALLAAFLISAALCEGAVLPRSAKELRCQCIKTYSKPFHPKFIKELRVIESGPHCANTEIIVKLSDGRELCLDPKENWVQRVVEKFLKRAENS

[9] = target: T3, Polyadenylate-binding protein 1; test: MLLE domain peptide-binding blockers, IC50 – biochemical, fluorescence polarization, FITC-PAM2 peptide, dose response (AID 602259); assay type: functional; details: read-out: IC50_Mean
Interleukin-8 [10] = target: T4, Interleukin-8; test: Dose Response confirmation of uHTS small molecule hits for cystic fibrosis induced NFkb Inhibitors in a TNFa-induced IL8 counterscreen.; assay type: functional; details: read-out: IC50_Mean

T1 sequence (P32245 whole entry): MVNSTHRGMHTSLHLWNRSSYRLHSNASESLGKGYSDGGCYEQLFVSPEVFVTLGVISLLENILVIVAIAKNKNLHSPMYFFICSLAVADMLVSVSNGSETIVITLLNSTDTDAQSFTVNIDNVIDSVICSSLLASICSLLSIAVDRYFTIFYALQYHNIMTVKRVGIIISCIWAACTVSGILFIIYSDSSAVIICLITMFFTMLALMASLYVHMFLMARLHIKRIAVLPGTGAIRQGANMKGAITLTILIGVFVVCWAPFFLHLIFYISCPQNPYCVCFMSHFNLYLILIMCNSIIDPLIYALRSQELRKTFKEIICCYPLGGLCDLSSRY
T3 sequence (P11940 whole entry): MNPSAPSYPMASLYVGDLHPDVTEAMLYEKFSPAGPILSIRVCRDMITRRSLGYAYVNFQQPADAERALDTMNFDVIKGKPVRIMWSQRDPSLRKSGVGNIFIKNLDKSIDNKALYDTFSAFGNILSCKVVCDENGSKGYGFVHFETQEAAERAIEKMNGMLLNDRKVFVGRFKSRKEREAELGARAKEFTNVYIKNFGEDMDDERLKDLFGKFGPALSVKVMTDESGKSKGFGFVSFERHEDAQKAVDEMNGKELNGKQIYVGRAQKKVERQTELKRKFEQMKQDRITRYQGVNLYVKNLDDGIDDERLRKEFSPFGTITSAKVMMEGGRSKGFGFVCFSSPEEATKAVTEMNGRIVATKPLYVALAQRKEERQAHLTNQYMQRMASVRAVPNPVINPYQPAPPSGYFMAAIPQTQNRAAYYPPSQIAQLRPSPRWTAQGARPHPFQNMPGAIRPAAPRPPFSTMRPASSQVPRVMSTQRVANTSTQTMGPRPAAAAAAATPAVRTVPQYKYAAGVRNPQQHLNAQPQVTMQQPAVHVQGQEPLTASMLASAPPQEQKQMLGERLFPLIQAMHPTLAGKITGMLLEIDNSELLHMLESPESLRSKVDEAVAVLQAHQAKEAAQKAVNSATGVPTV
Sequence of Mu-type opioid receptor (P35372 whole entry): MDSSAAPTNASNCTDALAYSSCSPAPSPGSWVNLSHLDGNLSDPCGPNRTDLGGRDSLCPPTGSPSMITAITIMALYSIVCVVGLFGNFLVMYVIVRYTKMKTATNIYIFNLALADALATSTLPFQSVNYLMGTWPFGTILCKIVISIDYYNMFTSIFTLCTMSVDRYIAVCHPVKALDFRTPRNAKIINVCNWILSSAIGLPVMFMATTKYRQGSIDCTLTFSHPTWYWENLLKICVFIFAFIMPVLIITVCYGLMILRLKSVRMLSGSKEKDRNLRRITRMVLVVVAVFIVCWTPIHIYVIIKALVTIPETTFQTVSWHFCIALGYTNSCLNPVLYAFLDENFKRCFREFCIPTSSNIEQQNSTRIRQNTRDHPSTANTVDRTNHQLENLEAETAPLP
Sequence of 5-hydroxytryptamine receptor 5A (P47898 whole entry): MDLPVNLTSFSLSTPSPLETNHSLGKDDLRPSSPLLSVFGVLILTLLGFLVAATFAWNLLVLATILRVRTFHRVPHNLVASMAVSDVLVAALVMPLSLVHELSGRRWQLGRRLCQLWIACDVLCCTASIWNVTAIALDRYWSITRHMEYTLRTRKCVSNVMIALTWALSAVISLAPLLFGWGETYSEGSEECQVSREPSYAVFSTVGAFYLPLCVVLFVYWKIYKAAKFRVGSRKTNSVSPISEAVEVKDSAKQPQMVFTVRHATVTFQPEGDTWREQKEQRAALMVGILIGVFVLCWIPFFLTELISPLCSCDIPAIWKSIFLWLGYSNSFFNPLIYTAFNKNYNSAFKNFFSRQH
Sequence of Delta-type opioid receptor (P41143 whole entry): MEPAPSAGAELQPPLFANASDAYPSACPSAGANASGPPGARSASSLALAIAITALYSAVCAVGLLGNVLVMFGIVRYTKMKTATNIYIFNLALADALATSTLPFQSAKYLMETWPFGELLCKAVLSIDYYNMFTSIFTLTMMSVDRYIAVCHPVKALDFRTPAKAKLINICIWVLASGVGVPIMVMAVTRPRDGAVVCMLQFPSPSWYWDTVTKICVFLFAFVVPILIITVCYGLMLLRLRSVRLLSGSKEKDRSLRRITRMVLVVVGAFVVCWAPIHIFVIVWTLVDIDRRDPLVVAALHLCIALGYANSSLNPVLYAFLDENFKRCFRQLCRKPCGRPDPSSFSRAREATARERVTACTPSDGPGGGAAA

With `CCN(CC)S(=O)(=O)c1ccc(N2CCOCC2)c(NC(=O)c2ccccc2F)c1` as the compound, how does the IC50 (Melanocortin receptor 4 [1]) read?
The IC50 was > 64.6 µM (inactive).

What about the IC50 [2] of the same compound?
The IC50 was > 64.6 µM (inactive).

Which results are given for `O=C1NC(c2cccc(OCc3ccccc3)c2)Nc2ccccc21` (stereo unspecified)?
AC50 [3]: 2.82 µM (active); AC50 (HEK293): 84 µM (active)

Which EC50 (Melanocortin receptor 4 [4]) does the source give for `CCCCCCCCNS(=O)(=O)CCNCCc1ccccc1` here?
The EC50 was > 89.1 µM (inactive).

Which results are given for `CN(C)CCCN(C(=O)c1ccc(S(=O)(=O)N(C)Cc2ccccc2)cc1)c1nc2c(F)cccc2s1`?
EC50 (Mu-type opioid receptor): 26.2 µM (inactive); EC50 [5]: > 30.8 µM (inactive); EC50 [6]: > 92.5 µM (inactive)

With `CCOc1ccc(-c2cc(C(=O)N/N=C/c3ccc(O)cc3)c3ccccc3n2)cc1` as the compound, how does the CC50 (Vero) read?
The CC50 was 14.9 µM (active).

What about the AC50 (HEK293) of the same compound?
The AC50 was 5.12 µM (active).

What does the source list for `O=S1(=O)CCC(NC(=S)SCCOc2ccccc2)C1` (stereo unspecified)?
IC50 [7]: > 66 µM (inactive); IC50 (Interleukin-8 [8]): 3.07 µM (active); IC50 [9]: > 66 µM (inactive); IC50 (Interleukin-8 [10]): 3.66 µM (active)

For `COc1cc([N+](=O)[O-])ccc1NC(=S)NC(=O)CC(C)(C)C`, which IC50 (Melanocortin receptor 4 [1]) is on record?
The IC50 was > 64.6 µM (inactive).

What about the IC50 [2] of the same compound?
Its IC50 is > 64.6 µM (inactive).
